From EP1247803A2, “Indolinone compounds suitable for modulation of protein kinases” (Sugen, Inc., priority 1996, dated 1998) come the findings set out here.

For assay [1], the target named is T1, FLK-1 receptor (Mus musculus, UniProt P35918).
T1 construct: expressed in transfected cells; host or cells: NIH3T3 C7#3
Kind of assay: FLK-1 ELISA (kinase activity of the FLK-1 receptor in FLK-1/NIH3T3 cells, VEGF stimulated). It counts as cell-based. The arrangement: concentration or dose not given beside the values. The procedure, abridged: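 FLK-1-expressing NIH3T3 C7#3 cells, starved overnight in 0.1% FBS medium, were treated with compounds at a 1:200 final dilution (0.5% DMSO) for 2 h at 37 °C, with VEGF stimulation. FLK-1 kinase activity was read by ELISA on anti-rabbit IgG plates using affinity-purified anti-FLK-1 antiserum.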

In assay [2] the test system is MET. Kind of assay: MET biochemical kinase assay. More on the design: species or system human; concentration or dose not given beside the values. The procedure, abridged:
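MET from cell lysates captured on ELISA plates via rabbit anti-MET cytoplasmic-domain antibody; compounds added and kinase reaction run in ATP and divalent-metal buffer. Receptor phosphotyrosine detected with HRP-conjugated anti-phosphotyrosine antibody and TMB colorimetry.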

Molecules are shown by their SMILES.

T1 sequence (P35918 20-1345): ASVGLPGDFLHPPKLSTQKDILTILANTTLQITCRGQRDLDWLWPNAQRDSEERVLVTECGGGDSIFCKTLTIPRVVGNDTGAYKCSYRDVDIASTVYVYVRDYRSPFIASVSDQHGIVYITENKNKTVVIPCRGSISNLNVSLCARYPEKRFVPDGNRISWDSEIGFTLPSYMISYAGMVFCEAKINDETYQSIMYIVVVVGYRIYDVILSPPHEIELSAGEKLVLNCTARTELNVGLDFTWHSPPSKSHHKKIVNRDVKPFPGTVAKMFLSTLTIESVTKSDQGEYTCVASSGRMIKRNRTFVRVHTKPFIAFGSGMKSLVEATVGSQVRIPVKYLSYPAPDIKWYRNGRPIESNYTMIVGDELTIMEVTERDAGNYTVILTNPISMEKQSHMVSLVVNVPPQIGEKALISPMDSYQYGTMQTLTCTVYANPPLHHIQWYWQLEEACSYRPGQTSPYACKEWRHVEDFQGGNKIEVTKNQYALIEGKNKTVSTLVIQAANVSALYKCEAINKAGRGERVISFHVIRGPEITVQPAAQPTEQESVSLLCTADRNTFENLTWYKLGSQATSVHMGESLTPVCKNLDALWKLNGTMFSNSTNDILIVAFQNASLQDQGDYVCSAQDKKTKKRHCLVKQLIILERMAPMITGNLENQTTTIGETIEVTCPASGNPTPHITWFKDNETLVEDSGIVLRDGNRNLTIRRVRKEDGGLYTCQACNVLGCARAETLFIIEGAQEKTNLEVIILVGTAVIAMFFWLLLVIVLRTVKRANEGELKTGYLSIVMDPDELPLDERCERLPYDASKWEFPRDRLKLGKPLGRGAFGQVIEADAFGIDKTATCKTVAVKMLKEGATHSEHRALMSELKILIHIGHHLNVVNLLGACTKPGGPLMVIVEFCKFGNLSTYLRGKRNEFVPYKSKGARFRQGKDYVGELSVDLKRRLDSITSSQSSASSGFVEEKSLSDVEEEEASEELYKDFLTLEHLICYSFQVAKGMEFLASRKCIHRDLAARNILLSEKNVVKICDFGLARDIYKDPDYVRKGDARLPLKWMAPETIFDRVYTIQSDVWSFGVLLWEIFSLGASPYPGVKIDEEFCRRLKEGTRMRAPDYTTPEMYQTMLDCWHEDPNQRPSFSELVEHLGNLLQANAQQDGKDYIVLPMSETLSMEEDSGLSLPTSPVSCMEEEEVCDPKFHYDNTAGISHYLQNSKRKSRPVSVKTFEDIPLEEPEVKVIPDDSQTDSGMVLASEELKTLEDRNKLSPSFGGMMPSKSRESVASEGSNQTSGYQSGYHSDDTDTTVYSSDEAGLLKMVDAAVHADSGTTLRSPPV

On to `O=C1Nc2ccc(I)cc2C1=Cc1cccc(Br)c1` [10723/B10], for which the “Fik Kinase %Inhibition” value in assay [1] is listed as 5.8%. Moreover, the “Met Kinase % Inhibition” value in assay [2] amounted to 88.5%.

With `Cc1cc(C=C2C(=O)Nc3c(Br)cc(Br)cc32)ccc1O` [10723/A06], the “Fik Kinase %Inhibition” value in assay [1] is listed as 8.6%. The “Met Kinase % Inhibition” value in assay [2] was 79.1%.

As to `CNS(=O)(=O)c1ccc2c(c1)C(=Cc1[nH]c(C)c(Br)c1Br)C(=O)N2` [10717/D11], in assay [1], the “Fik Kinase %Inhibition” value is 11.6%. The “Met Kinase % Inhibition” value in assay [2] is 55.3%.

As to `O=C1Nc2ccc(S(=O)(=O)N3CCOCC3)cc2C1=Cc1ccc(O)c(O)c1O` [10723/F02], the “Fik Kinase %Inhibition” value in assay [1] turned out to be 10.3%. Moreover, the “Met Kinase % Inhibition” value in assay [2] amounted to 99.0%.

In the case of `CNS(=O)(=O)c1ccc2c(c1)C(=Cc1cccc(OC)c1O)C(=O)N2` [10723/D03], in assay [1], the “Fik Kinase %Inhibition” value is -14.7%. Moreover, the “Met Kinase % Inhibition” value in assay [2] came to 69.4%.

In the case of `CNS(=O)(=O)c1ccc2c(c1)C(=Cc1ccc(OC)cc1O)C(=O)N2` [10723/D09], the “Fik Kinase %Inhibition” value in assay [1] worked out at 50.4%. In addition, the “Met Kinase % Inhibition” value in assay [2] is reported as 62.6%.

In the case of `CC(=O)Oc1ccc(C=C2C(=O)Nc3ccc(I)cc32)cc1OC(C)=O` [10723/B05], in assay [1], the “Fik Kinase %Inhibition” value was -15.4%. Besides, the “Met Kinase % Inhibition” value in assay [2] was found to be 85.1%.

`COc1cccc(C=C2C(=O)Nc3ccc(S(=O)(=O)N4CCOCC4)cc32)c1O` [10723/F03]: the “Fik Kinase %Inhibition” value in assay [1] was determined as 4.4%. In assay [2], the “Met Kinase % Inhibition” value is on record as 78.3%.

For the compound `O=C1Nc2ccc(S(=O)(=O)Nc3ccc(C(F)(F)F)cc3)cc2C1=Cc1ccccc1Br` [10723/E07], the “Fik Kinase %Inhibition” value in assay [1] is listed as 17.4%. Moreover, the “Met Kinase % Inhibition” value in assay [2] is given as 47.7%.

With `O=C1Nc2ccc(S(=O)(=O)Nc3ccc(C(F)(F)F)cc3)cc2C1=Cc1cc(O)c(O)c(Br)c1` [10723/E04], the “Fik Kinase %Inhibition” value in assay [1] is given as 30.7%. Moreover, the “Met Kinase % Inhibition” value in assay [2] was determined as 94.5%.

In the case of `O=C1Nc2ccc(CCCl)cc2C1=Cc1c(O)cc(O)cc1O` [10722/G03], the “Fik Kinase %Inhibition” value in assay [1] was 5.3%. The “Met Kinase % Inhibition” value in assay [2] was 52.2%.

Regarding `O=C1Nc2ccc(I)cc2C1=Cc1ccc(O)c(O)c1O` [10723/B02], the “Fik Kinase %Inhibition” value in assay [1] is reported as -0.3%. Besides, the “Met Kinase % Inhibition” value in assay [2] is on record as 100.3%.

For the compound `Cc1cc(C=C2C(=O)Nc3ccc(Br)c(C)c32)ccc1O` [10723/C06], the “Fik Kinase %Inhibition” value in assay [1] was 17.8%. Further, the “Met Kinase % Inhibition” value in assay [2] is listed as 63.4%.

Turning to `Cn1cccc1C=C1C(=O)Nc2ccc(S(=O)(=O)Nc3ccc(C(F)(F)F)cc3)cc21` [10717/E04], in assay [1], the “Fik Kinase %Inhibition” value is reported as 6.1%. Moreover, in assay [2], the “Met Kinase % Inhibition” value is 29.4%.

As for `O=C1Nc2ccc(CCCl)cc2C1=Cc1ccccc1Br` [10723/G07], in assay [1], the “Fik Kinase %Inhibition” value is 14.2%. Besides, in assay [2], the “Met Kinase % Inhibition” value is given as 43.0%.

Regarding `O=C1Nc2c(Br)cc(Br)cc2C1=Cc1cccc(Br)c1` [10723/A10], the “Fik Kinase %Inhibition” value in assay [1] is listed as -3.1%. The “Met Kinase % Inhibition” value in assay [2] is listed as 62.1%.

`O=C1Nc2ccc(I)cc2C1=Cc1ccc(O)cc1O` [10723/B08]: in assay [1], the “Fik Kinase %Inhibition” value came to 1.0%. The “Met Kinase % Inhibition” value in assay [2] is on record as 82.8%.

Turning to `O=C1Nc2ccc(CCCl)cc2C1=Cc1csc([N+](=O)[O-])c1` [10722/G09], the “Fik Kinase %Inhibition” value in assay [1] was found to be 6.1%. For the same compound, the “Met Kinase % Inhibition” value in assay [2] is 51.0%.

With `CNS(=O)(=O)c1ccc2c(c1)C(=Cc1ccc(OC(C)=O)c(OC(C)=O)c1)C(=O)N2` [10723/D05], the “Fik Kinase %Inhibition” value in assay [1] is -6.1%. Further, in assay [2], the “Met Kinase % Inhibition” value is given as 54.5%.

On to `O=C1Nc2ccc(I)cc2C1=Cc1ccccc1Br` [10723/B07], for which, in assay [1], the “Fik Kinase %Inhibition” value was 6.5%. In assay [2], the “Met Kinase % Inhibition” value is 86.7%.

In the case of `CC(C)(C)c1cc(C=C2C(=O)Nc3ccc(S(=O)(=O)Nc4ccc(C(F)(F)F)cc4)cc32)c(O)c(C(C)(C)C)c1` [10723/E11], in assay [1], the “Fik Kinase %Inhibition” value came out at 8.9%. Further, the “Met Kinase % Inhibition” value in assay [2] worked out at 50.1%.

Take `CNS(=O)(=O)c1ccc2c(c1)C(=Cc1cc(O)c(O)c(Br)c1)C(=O)N2` [10723/D04]: in assay [1], the “Fik Kinase %Inhibition” value is on record as 15.2%. For the same compound, in assay [2], the “Met Kinase % Inhibition” value is given as 97.7%.

For `Cc1ccc(C=C2C(=O)Nc3ccc(S(=O)(=O)Nc4ccc(C(F)(F)F)cc4)cc32)s1` [10717/E07], the “Fik Kinase %Inhibition” value in assay [1] is given as 15.3%. Moreover, the “Met Kinase % Inhibition” value in assay [2] stood at 41.0%.

Take `O=C1Nc2ccc(S(=O)(=O)Nc3ccc(C(F)(F)F)cc3)cc2C1=Cc1cccs1` [10717/E03]: in assay [1], the “Fik Kinase %Inhibition” value came to 19.0%. The “Met Kinase % Inhibition” value in assay [2] was determined as 52.2%.

For `O=C1Nc2c(Br)cc(Br)cc2C1=Cc1cc(O)c(O)c(Br)c1` [10723/A04], the “Fik Kinase %Inhibition” value in assay [1] was 27.2%. Moreover, in assay [2], the “Met Kinase % Inhibition” value is recorded as 97.9%.

On to `COc1cccc(C=C2C(=O)Nc3ccc(I)cc32)c1O` [10723/B03], for which, in assay [1], the “Fik Kinase %Inhibition” value amounted to 7.1%. Further, the “Met Kinase % Inhibition” value in assay [2] was determined as 82.5%.

Regarding `CC(=O)Oc1ccc(C=C2C(=O)Nc3ccc(S(=O)(=O)N4CCOCC4)cc32)cc1OC(C)=O` [10723/F05], in assay [1], the “Fik Kinase %Inhibition” value is -6.4%. The “Met Kinase % Inhibition” value in assay [2] is 45.6%.

On to `O=C1Nc2ccc(CCCl)cc2C1=Cc1ccc(C(F)(F)F)cc1` [10722/G11], for which the “Fik Kinase %Inhibition” value in assay [1] was determined as 0.6%. In addition, in assay [2], the “Met Kinase % Inhibition” value came out at 35.3%.

Take `O=C1Nc2ccc(CCCl)cc2C1=Cc1ccc(O)cc1O` [10723/G08]: in assay [1], the “Fik Kinase %Inhibition” value was -22.9%. Also, the “Met Kinase % Inhibition” value in assay [2] worked out at 79.9%.
